Experimental data published in patent US20100098737A1, “METHODS AND COMPOSITIONS FOR DELIVERY OF GLYCOPEPTIDE ANTIBIOTICS TO MEDICAL DEVICE SURFACES” (priority 2008, published 2010).
Read-outs that look alike come from different tables or passages of the source. *1 amine or outer side, *2 acyl side, *3 side chain or, on linkers, in order; H or OH if unused. Bridges are numbered along the chain shown (N, C = ends). Where no end group is shown, it is not given here. [ ]: non-standard residue; d: D form. (miniPEG)2 = linker of two miniPEG units, each HN-CH2CH2-O-CH2CH2-O-CH2-C(=O), O=C(COCCOCCN[*:1])NCCOCCOCC(=O)[*:2]

How the values were obtained:
[1] = binding assay: biotinylated synthetic peptide on streptavidin plate, titrated with biotinylated glycopeptide antibiotic
Method: A typical binding assay for glycopeptide antibiotic was performed according to the following procedure. Briefly, synthetic peptides comprising an amino acid sequence to be characterized for binding were biotinylated to facilitate immobilization on streptavidin-coated 96-well plates. The microtiter plates were coated with streptavidin by adding 50 μl of a 10 μg/ml streptavidin solution in 0.1M NaHCO3, and incubating the plates for at least 3 hours. The plate wells were blocked by adding 150 μl of a 1% BSA solution in 0.1 NaHCO3 with incubation for at least 2 hours, and the plates were stored at 4° C. until needed. Before use, the streptavidin plates were washed extensively in buffer-T. Added per well was peptide (100 μl 0.1 μM peptide in buffer-T), and then incubated for 30 minutes at room temperature with shaking. 200 μl of 0.5 mM biotin in buffer-T was added to block the remaining streptavidin sites, and plates were incubated for 15 minutes at room temperature. Plates were then washed with buffer-T to remove the excess biotin and peptide. Serial dilutions of biotinylated glycopeptide antibiotic in buffer-T were added (100 μl) to each well, representing a range of concentrations between 100 pM and 100 μM. Plates were incubated for 30 minutes at room temperature with shaking prior to washing several times with buffer-T. Glycopeptide antibiotic was then detected by adding 100 μl of a diluted streptavidin-alkaline phosphatase conjugate to each well and incubated at room temperature for 30 minutes. Excess conjugate was removed by repeated washes with buffer-T, and the amount of alkaline phosphatase remaining in the well was detected using a pNPP (para-nitrophenylphosphate) colorimetric enzymatic assay. The relative amount of glycopeptide antibiotic captured by the peptides was determined by measuring the absorbance at 405 nm of the colored product of the alkaline phosphatase reaction. The EC50 was determined for each peptide relative to the binding affinity for the glycopeptide antibiotic used in the assay, as shown in Table 1 (with vancomycin as a representative glycopeptide antibiotic).
(§1) A typical binding assay for glycopeptide antibiotic was performed according to the following procedure. The concentrations of the alkaline-phosphatase linked variant peptides were normalized to equal levels based on the alkaline-phosphatase activity as determined in a kinetic assay with the alkaline-phosphatase specific chromogenic substrate p-nitrophenyl phosphate (p-NPP). A streptavidin coated microtiter plate was coated with biotinylated vancomycin. Serial dilutions of normalized alkaline-phosphatase linked peptides were allowed to bind to the immobilized vancomycin and detected by addition of the alkaline-phosphatase specific chromogenic substrate p-NPP. Relative affinity for peptide binding to the immobilized vancomycin was determined by measuring the absorbance at 405 nm of the colored product of the alkaline phosphatase reaction. […] EC50 values for the synthetic peptides binding to vancomycin were determined as described in Example 1 and are shown in Table 3. Preferred are peptides that bind to glycopeptide antibiotic with binding affinity of EC50 of less than or equal to about 1 μM, and more preferably, in the nanomolar range (e.g., <0.1 μM).

[2] = binding of serially diluted alkaline-phosphatase linked peptides to immobilized biotinylated vancomycin; conditions: absorbance at 405 nm
Text: From the peptide amino acid sequence […] (SEQ ID NO: 1) additional peptides were designed and expressed in the bacterial expression system described herein to further evaluate structure-function relationships. A truncated peptide comprising the amino acid sequence of SEQ ID NO:9 (STCLIDMYGVCH) was expressed and compared to a peptide comprising SEQ ID NO:1 for binding affinity for glycopeptide antibiotic. Also produced were a dimer of this truncated peptide (SEQ ID NO:10; […]), a D to A substitution (SEQ ID NO:11; STCLIAMYGVCH), a D to E substitution (SEQ ID NO:12; STCLIEMYGVCH), and a G to S substitution (SEQ ID NO:13; STCLIDMYSVCH). Relative binding strengths of these peptides and of other representative peptides to glycopeptide antibiotic were determined by EC50 values for binding to vancomycin or other glycopeptide antibiotic.
as §1

S. aureus = test: bacterial growth with loaded titanium beads, optical density at 600 nm; format: cell-based; conditions: peptide 10 μM + vancomycin 200 μM, 37° C. for 18 hours
Method: In another experiment, antimicrobial activity of the peptide compositions was measured as follows. Titanium beads were placed into wells of a 96 well plate. To each well was added a 10 μM of peptide composition comprising at least one surface-binding peptide coupled to at least one glycopeptide antibiotic binding peptide and vancomycin at 200 μM. The appropriate negative controls were also included. The plate was incubated for 1 hour at 20° C., and then the wells and beads were washed 4 times with buffer. After washing, the beads were transferred to the well of a plate containing S. aureus in log phase growth and incubated at 37° C. for 18 hours. Bacterial growth was assessed by reading optical density at 600 nm.

vancomycin [3] = test: plate assay as in Example 1: synthetic peptide on streptavidin, biotinylated vancomycin titrated
vancomycin [4] = test: plate assay: biotinylated peptide on streptavidin, biotinylated vancomycin titrated, streptavidin-AP detection
vancomycin [5] = test: titanium beads with 10 µM peptide composition and 200 µM vancomycin, washed, vancomycin eluted with HCl and measured by HPLC
[6] = synthetic peptides binding to vancomycin, read-out: EC50, binding to glycopeptide antibiotic
[7] = synthetic peptides, biotinylated vancomycin, read-out: EC50 (μM) for vancomycin binding

In the case of STCLIDMYGVCHSSCLIDMYGVCH [compound 10], the EC50 [1, 6] is reported as under 1 µM and the “glycopeptide antibiotic binding of alkaline-phosphatase linked peptides” value (“glycopeptide antibiotic binding” below) [2] is reported as “displayed glycopeptide antibiotic binding”.

In the case of “120 (H-SSSCLIDMYGVCHNFDGAYDSSRG[(miniPEG)2]SSHRTNHKKNNPKKKNKTRGSSGK-NH2; disulfide 4-12) [compound 120]”, the “inhibition of bacterial growth (optical density at 600 nm)” value (“inhibition of bacterial growth” for short) (S. aureus) is reported as “complete inhibition”.

For 11 (STCLIAMYGVCH) [compound 11], the “glycopeptide antibiotic binding” value [2] was “no detectable glycopeptide antibiotic binding”.

For CLFDIFGVCHSFDGAYDS [compound 2], the EC50 [1, 6] was under 0.1 µM and the EC50 [1, 7] was 0.06 µM.

With 12 (STCLIEMYGVCH) [compound 12] the “glycopeptide antibiotic binding” value [2] was “no detectable glycopeptide antibiotic binding”.

With “130 (SSCLIDIYGVCHNFDAY[(miniPEG)2]HKKNNPKKKNKTRGSSK; disulfide 3-11 (inferred)) [compound 130]” the “inhibition of bacterial growth” value (S. aureus) was “complete inhibition”.

In the case of “131 (SSCLIDIYGVCHNFDAY[(miniPEG)2]SSHRTNHKKNNPKKKNKTRGSSGK; disulfide 3-11 (inferred)) [compound 131]”, the “inhibition of bacterial growth” value (S. aureus) is reported as “complete inhibition”.

PCELIDMFGNDHCP [compound 3] gave an EC50 [1, 6] of under 0.1 µM and an EC50 [1, 7] of 0.82 µM.

SCDMLFCENFSGSGNNWFS [compound 4] showed an EC50 [1, 7] of 10 µM.

For 13 (STCLIDMYSVCH) [compound 13], the “glycopeptide antibiotic binding” value [2] was “no detectable glycopeptide antibiotic binding”.

In the case of STCLIDMYGVCH [compound 9], the EC50 [1, 6] is reported as under 1 µM and the “glycopeptide antibiotic binding” value [2] is reported as “displayed glycopeptide antibiotic binding”.

Work on SLIDMYGVCHNFDGAYDS [compound 5] yielded an EC50 [1, 7] of 10 µM.

Work on CLIDMYGVCHNFDGAYDS (cysteine pairing not given here; also: biotinylated, site not given here) [synthetic peptide comprising SEQ ID NO: 1] yielded an EC50 (vancomycin [3]) of under 100 nM and an EC50 (vancomycin [4]) of 100 nM.

For PCELIDMFGNDHCP (cysteine pairing not given here; also: biotinylated, site not given here) [synthetic peptide comprising SEQ ID NO: 3], the EC50 (vancomycin [3]) was under 100 nM and the EC50 (vancomycin [4]) was 820 nM.

Molecule SSCLIDIYGVCHNFDAY[(miniPEG)2]SSHRTNHKKNNPKKKNKTRGSSGK (disulfide 3-11 (inferred)) [peptide composition SEQ ID NO: 131] has a Picomoles vancomycin/cm^2 (picomoles/cm^2) (vancomycin [5]) of 76.

SSCLIDIYGVCHNFDAY[(miniPEG)2]HKKNNPKKKNKTRGSSK (disulfide 3-11 (inferred)) [peptide composition SEQ ID NO: 130] gave a Picomoles vancomycin/cm^2 (picomoles/cm^2) (vancomycin [5]) of 83.

For SCDMLFCENFSGSGNNWFS (cysteine pairing not given here; also: biotinylated, site not given here) [synthetic peptide comprising SEQ ID NO: 4], the EC50 (vancomycin [4]) was 10000 nM.

CLFDIFGVCHSFDGAYDS (cysteine pairing not given here; also: biotinylated, site not given here) [synthetic peptide comprising SEQ ID NO: 2] showed an EC50 (vancomycin [3]) of under 100 nM and an EC50 (vancomycin [4]) of 60 nM.

With SLIDMYGVCHNFDGAYDS (also: biotinylated, site not given here) [synthetic peptide comprising SEQ ID NO: 5] the EC50 (vancomycin [4]) was 10000 nM.

STCLIDMYGVCHSSCLIDMYGVCH (cysteine pairing not given here; also: biotinylated, site not given here) [synthetic peptide comprising SEQ ID NO: 10] showed an EC50 (vancomycin [3]) of under 1000 nM.

Work on STCLIDMYGVCH (cysteine pairing not given here; also: biotinylated, site not given here) [synthetic peptide comprising SEQ ID NO: 9] yielded an EC50 (vancomycin [3]) of under 1000 nM.
